Type in all cases: cell-based
Test [1] has as its target T1, Potassium voltage-gated channel subfamily A member 5 (Homo sapiens, UniProt P22460). Put plainly: Inhibition of human Kv1.5 channel expressed in Xenopus oocytes at 3 uM by EP voltage clamp technique. To be noted: Oocyte.
Test [2] has as its target T1, Potassium voltage-gated channel subfamily A member 5. Description: Inhibition of human Kv1.5 channel expressed in mouse L929 cells by EP voltage clamp technique.
Test [3] has the same target. Description: Inhibition of human Kv1.5 channel expressed in Xenopus oocytes at 10 uM by EP voltage clamp technique. To be noted: Oocyte.
A short description of test [4]: Inhibition of L-type calcium channel expressed in HEK293 cells.

For orientation: inhibition means the percentage by which the read-out fell short of the control. Lower therefore signals a response near the control. As a reminder, the IC50 is the point on the concentration scale where inhibition reaches its midpoint.

SMILES strings stand for the structures.

T1 sequence (P22460 whole entry): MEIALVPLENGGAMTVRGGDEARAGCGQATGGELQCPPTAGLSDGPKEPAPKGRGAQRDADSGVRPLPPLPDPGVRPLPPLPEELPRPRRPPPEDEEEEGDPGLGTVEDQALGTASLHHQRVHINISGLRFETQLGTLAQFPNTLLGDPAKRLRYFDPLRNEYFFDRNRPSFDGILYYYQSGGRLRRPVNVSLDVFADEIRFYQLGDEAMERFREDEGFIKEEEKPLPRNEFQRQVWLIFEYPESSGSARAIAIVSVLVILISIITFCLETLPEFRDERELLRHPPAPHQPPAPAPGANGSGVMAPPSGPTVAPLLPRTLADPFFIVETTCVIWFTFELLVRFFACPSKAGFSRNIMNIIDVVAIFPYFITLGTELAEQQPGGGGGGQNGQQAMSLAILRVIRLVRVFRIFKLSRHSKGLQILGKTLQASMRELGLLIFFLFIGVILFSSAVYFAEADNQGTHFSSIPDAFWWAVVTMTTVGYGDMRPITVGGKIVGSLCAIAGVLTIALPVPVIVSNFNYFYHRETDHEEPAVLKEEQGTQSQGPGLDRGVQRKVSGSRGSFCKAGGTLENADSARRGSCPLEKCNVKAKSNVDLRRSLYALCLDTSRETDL

As for `Cc1nc2ccnn2c(-c2ccc(Cl)c(Cl)c2)c1C(=O)N1CCCCC1`, in test [1], the inhibition is 17%.
Turning to `CC1=C(C(=O)N2CCCC2)C(c2ccc(Cl)c(Cl)c2)n2nccc2N1` (stereo not drawn), in test [1], the inhibition worked out at 67%. This compound also came in with a concentration for half-maximal inhibition (IC50) in test [2] of 660 nM.
In the same order, the values of `COC[C@@H]1CCCN1C(=O)C1=C(C)Nc2ccnn2C1c1ccc(Cl)c(Cl)c1` (stereo partly drawn) are 88% and 200 nM.
The like results for `CC1=C(C(=O)N2CCN(c3ccc(F)cc3)CC2)C(c2cccc(Cl)c2Cl)n2nccc2N1` (stereo not drawn) were, in that order, 72% and 160 nM.
In the same order, the values of `CC1=C(C(=O)N2CCN(c3ccc(F)cc3)CC2)C(c2ccc(Cl)cc2Cl)n2nccc2N1` (stereo not drawn) are 50% and 280 nM.
As for `CC1=C(C(=O)N2CCN(c3ccc(F)cc3)CC2)C(c2ccc(C)c(C)c2)n2nccc2N1` (stereo not drawn), the inhibition in test [1] came out at 34%. This compound showed an IC50 in test [2] of 750 nM.
The like results for `CC1=C(C(=O)NCc2ccccc2)C(c2ccc(Cl)c(Cl)c2)n2nccc2N1` (stereo not drawn) were, in that order, 62% and 160 nM.
In the same order, the values of `CC1=C(C(=O)N2CCN(c3ccc(F)cc3)CC2)C(c2sc3ccccc3c2C)n2nccc2N1` (stereo not drawn) are 56% and 200 nM.
In test [1], `CC1=C(C(=O)N2CCN(c3ccc(F)cc3)CC2)C(c2ccc(C)cc2)n2nccc2N1` (stereo not drawn) yielded an inhibition of 27%.
Same read-out and setting: as for `COc1ccc(C2C(C(=O)N3CCN(c4ccc(F)cc4)CC3)=C(C)Nc3ccnn32)cc1` (stereo not drawn), the figure is 11%; as for `CC1=C(C(=O)N2CCN(c3ccc(F)cc3)CC2)C(c2ccco2)n2nccc2N1` (stereo not drawn), 1%; as for `CC1=C(C(=O)N2CCN(c3ccc(F)cc3)CC2)C(c2cccs2)n2nccc2N1` (stereo not drawn), 7%.
With `CC1=C(C(=O)N2CCN(c3ccc(F)cc3)CC2)C(c2ccc(C)s2)n2nccc2N1` (stereo not drawn), the inhibition in test [1] turned out to be 1%.
Turning to `CCCN(CCC)C(=O)C1=C(C)Nc2ccnn2C1c1ccc(Cl)c(Cl)c1` (stereo not drawn), the inhibition in test [1] is 72%. In addition, in test [2], the IC50 turned out to be 70 nM.
In test [1], `CC1=C(C(=O)N2CCOCC2)C(c2ccc(Cl)c(Cl)c2)n2nccc2N1` (stereo not drawn) gave an inhibition of 17%.
Turning to `COc1cccc(C2C(C(=O)N3CCN(c4ccc(F)cc4)CC3)=C(C)Nc3ccnn32)c1OC` (stereo not drawn), the inhibition in test [1] is 7%.
Compound `Cc1nc2ccnn2c(-c2cccc(Cl)c2Cl)c1C(=O)N1CCN(c2ccc(F)cc2)CC1` came in with an inhibition in test [1] of 17%.
With `CC1=C(C(=O)N2CCN(c3ccc(F)cc3)CC2)C(c2cc(C)cc(C)c2)n2nccc2N1` (stereo not drawn), the inhibition in test [1] is 58%. In test [2], this compound had an IC50 of 420 nM.
Take `CC1=C(C(=O)N2CCN(c3ccc(F)cc3)CC2)C(c2ccc3ccccc3n2)n2nccc2N1` (stereo not drawn): in test [1], the inhibition worked out at 29%.
The same measure, in the same setting: as for `COc1ccccc1C1C(C(=O)N2CCN(c3ccc(F)cc3)CC2)=C(C)Nc2ccnn21` (stereo not drawn), the figure is 2%.
In test [1], `CC1=C(C(=O)N2CCN(c3ccc(F)cc3)CC2)C(c2ccc(Cl)s2)n2nccc2N1` (stereo not drawn) gave an inhibition of 51%. This compound came in with a half-maximal inhibitory concentration (IC50) in test [2] of 230 nM.
As for `CC1=C(C(=O)N2CCCCC2)C(c2ccc(Cl)c(Cl)c2)n2nccc2N1` (stereo not drawn), the inhibition in test [1] was 77%. Also, in test [2], half-maximal inhibition (IC50) required 90 nM.
In test [1], `CC1=C(C(=O)N2CCN(c3ccc(F)cc3)CC2)C(c2ccccn2)n2nccc2N1` (stereo not drawn) yielded an inhibition of 3%.
Same read-out and setting: for `CC1=C(C(=O)N2CCN(c3ccc(F)cc3)CC2)[C@H](c2ccc(Cl)c(Cl)c2)n2nccc2N1` the value was 19%.
In turn, `CC1=C(C(=O)N2CCN(c3ccc(F)cc3)CC2)C(c2cccc(Cl)c2)n2nccc2N1` (stereo not drawn) showed an inhibition in test [1] of 68%. Moreover, the IC50 in test [2] was found to be 190 nM.
The like results for `CCCCN(CCCC)C(=O)C1=C(C)Nc2ccnn2C1c1ccc(Cl)c(Cl)c1` (stereo not drawn) were, in that order, 45% and 310 nM.
In the same order, the values of `CC1=C(C(=O)N2CCN(c3ccc(F)cc3)CC2)C(c2ccc(Cl)cc2)n2nccc2N1` (stereo not drawn) are 42% and 440 nM.
In the case of `CC1=C(C(=O)N2CCN(c3ccc(F)cc3)CC2)C(c2ccc(C)o2)n2nccc2N1` (stereo not drawn), the inhibition in test [1] turned out to be 7%.
Consider `CC1=C(C(=O)N2CCCCCC2)C(c2ccc(Cl)c(Cl)c2)n2nccc2N1` (stereo not drawn), for which the inhibition in test [1] was found to be 90%. Besides, the IC50 in test [2] amounted to 190 nM.
Take `CC1=C(C(=O)N2CCN(c3ccc(F)cc3)CC2)C(c2sccc2C)n2nccc2N1` (stereo not drawn): the inhibition in test [1] is 29%.
Consider `CCCNC(=O)C1=C(C)Nc2ccnn2C1c1ccc(Cl)c(Cl)c1` (stereo not drawn), for which the IC50 in test [2] amounted to 490 nM.
For the compound `COc1cccc(C2C(C(=O)N3CCN(c4ccc(F)cc4)CC3)=C(C)Nc3ccnn32)c1` (stereo not drawn), the inhibition in test [1] was 30%.
As for `CCCCCNC(=O)C1=C(C)Nc2ccnn2C1c1ccc(Cl)c(Cl)c1` (stereo not drawn), in test [1], the inhibition amounted to 48%. Also, the IC50 in test [2] was 590 nM.
On to `CC1=C(C(=O)Nc2ccccc2)C(c2ccc(Cl)c(Cl)c2)n2nccc2N1` (stereo not drawn), for which the inhibition in test [3] was found to be 83%. For the same compound, in test [2], the midpoint of inhibition, the IC50, lay at 170 nM.
As for `COc1ccc(C2C(C(=O)N3CCN(c4ccc(F)cc4)CC3)=C(C)Nc3ccnn32)cc1OC` (stereo not drawn), in test [1], the inhibition was found to be 1%.
`CC1=C(C(=O)N2CCN(c3ccc(F)cc3)CC2)[C@H](c2cccc(Cl)c2Cl)n2nccc2N1` returned an inhibition in test [1] of 2%.
Take `CC1=C(C(=O)Nc2cccnc2)C(c2ccc(Cl)c(Cl)c2)n2nccc2N1` (stereo not drawn): the inhibition in test [3] turned out to be 9%.
In the case of `CC1=C(C(=O)N2CCN(c3ccccc3)CC2)C(c2ccc(Cl)c(Cl)c2)n2nccc2N1` (stereo not drawn), in test [3], the inhibition turned out to be 82%. The midpoint of inhibition in test [2], the IC50, lay at 85 nM.
In test [1], `CC1=C(C(=O)N2CCN(c3ccc(F)cc3)CC2)C(c2cc(Cl)ccc2Cl)n2nccc2N1` (stereo not drawn) showed an inhibition of 41%. For the same compound, the IC50 in test [2] is 820 nM.
Take `CC1=C(C(=O)N2CCN(c3ccc(F)cc3)CC2)C(c2ccc(C#N)cc2)n2nccc2N1` (stereo not drawn): in test [1], the inhibition came to 14%.
Take `CC1=C(C(=O)N2CCN(c3ccc(F)cc3)CC2)C(c2ccc3c(c2)OCO3)n2nccc2N1` (stereo not drawn): the inhibition in test [1] came to 26%.
With `CCN(CC)C(=O)C1=C(C)Nc2ccnn2C1c1ccc(Cl)c(Cl)c1` (stereo not drawn), the inhibition in test [1] turned out to be 61%. It took 440 nM to reach half-maximal inhibition in test [2] (IC50).
In the case of `CC1=C(C(=O)N2CCN(c3ccc(F)cc3)CC2)C(c2ccccc2)n2nccc2N1` (stereo not drawn), the inhibition in test [1] is 24%.
`CC1=C(C(=O)N2CCN(c3ccc(F)cc3)CC2)C(c2cccc([N+](=O)[O-])c2)n2nccc2N1` (stereo not drawn): in test [1], the inhibition worked out at 15%.
Same read-out and setting: for `CC1=C(C(=O)N2CCN(c3ccc(F)cc3)CC2)C(c2cccnc2)n2nccc2N1` (stereo not drawn) the value was 3%.
`CC1=C(C(=O)N2CCC(c3ccccc3)CC2)C(c2ccc(Cl)c(Cl)c2)n2nccc2N1` (stereo not drawn) registered an inhibition in test [1] of 59%. In test [2], this compound gave a 50% inhibitory concentration (IC50) of 159 nM.
`CC1=C(C(=O)NCCc2ccccc2)C(c2ccc(Cl)c(Cl)c2)n2nccc2N1` (stereo not drawn) registered an inhibition in test [3] of 84%. This compound also came in with a 50% inhibitory concentration (IC50) in test [2] of 100 nM.
Compound `CC1=C(C(=O)N2CCN(c3ccc(F)cc3)CC2)C(c2ccc3ccccc3c2)n2nccc2N1` (stereo not drawn) had an inhibition in test [1] of 39%. The IC50 in test [2] stood at 650 nM.
Compound `CC1=C(C(=O)N2CCN(c3ccc(F)cc3)CC2)C(c2ccc([N+](=O)[O-])cc2)n2nccc2N1` (stereo not drawn) showed an inhibition in test [1] of 24%.
For `COC[C@H]1CCCN1C(=O)C1=C(C)Nc2ccnn2C1c1ccc(Cl)c(Cl)c1` (stereo partly drawn), the inhibition in test [1] came to 39%.
Take `CCCCNC(=O)C1=C(C)Nc2ccnn2C1c1ccc(Cl)c(Cl)c1` (stereo not drawn): the inhibition in test [1] stood at 56%. Half-maximal inhibition in test [2] (IC50) required 440 nM.
In the case of `CC1=C(C(=O)N2CCN(c3ccc(F)cc3)CC2)C(c2ccccc2[N+](=O)[O-])n2nccc2N1` (stereo not drawn), the inhibition in test [1] amounted to 4%.
`CC1=C(C(=O)N2CCN(c3ccc(F)cc3)CC2)C(c2ccc(Cl)c(Cl)c2)n2nccc2N1` (stereo not drawn): the inhibition in test [1] is 65%. For the same compound, inhibition in test [2] was half-maximal at 120 nM (IC50).
The compound `CC1=C(C(=O)N2CCN(c3ccc(F)cc3)CC2)C(c2cccc(C#N)c2)n2nccc2N1` (stereo not drawn) registered an inhibition in test [1] of 11%.
The same measure, in the same setting: for `CC1=C(C(=O)N2CCN(C)CC2)C(c2ccc(Cl)c(Cl)c2)n2nccc2N1` (stereo not drawn) the value was 5%.
On the same count and under the same terms, as for `CC1=C(C(=O)N2CCN(C3CCCCC3)CC2)C(c2ccc(Cl)c(Cl)c2)n2nccc2N1` (stereo not drawn), the figure is 17%.
In the case of `CC1=C(C(=O)N2CCC2)C(c2ccc(Cl)c(Cl)c2)n2nccc2N1` (stereo not drawn), the inhibition in test [1] came to 52%. Also, the 50% inhibitory concentration (IC50) in test [2] is 970 nM.
For `CCOC(=O)C1=C(C)Nc2ccnn2C1c1cccc(Cl)c1Cl` (stereo not drawn), the figures for the half-maximal inhibitory concentration (IC50) in test [2] and in test [4] were 1100 nM and 9380 nM, respectively.
Consider `CC1=C(C(=O)N2CCN(c3ccc(F)cc3)CC2)C(c2cc3ccccc3o2)n2nccc2N1` (stereo not drawn), for which the inhibition in test [1] turned out to be 33%. Also, in test [2], half-maximal inhibition (IC50) required 160 nM.
The like results for `CCCCCN(CCCCC)C(=O)C1=C(C)Nc2ccnn2C1c1ccc(Cl)c(Cl)c1` (stereo not drawn) were, in that order, 69% and 580 nM.
On to `CC1=C(C(=O)N2CCN(c3ccc(F)cc3)CC2)C(c2ccccc2Cl)n2nccc2N1` (stereo not drawn), for which the inhibition in test [1] was found to be 30%.
Take `COC(=O)C1=C(C)NC(C)=C(C(=O)OC)C1c1ccccc1[N+](=O)[O-]` [NIFEDIPINE]: the IC50 turned out to be 6100 nM in test [2] and 60 nM in test [4].
Consider `CC1=C(C(=O)N2CCN(c3ccc(F)cc3)CC2)C(c2cc(Cl)cc(Cl)c2)n2nccc2N1` (stereo not drawn), for which the inhibition in test [1] worked out at 62%. In addition, 140 nM corresponded to half-maximal inhibition in test [2] (IC50).
In test [1], `CC1=C(C(=O)N2CCN(c3ccc(F)cc3)CC2)C(c2cccc(C)c2)n2nccc2N1` (stereo not drawn) returned an inhibition of 57%. The IC50 in test [2] amounted to 540 nM.
In test [1], `CC1=C(C(=O)N2CCN(c3ccc(F)cc3)CC2)C(c2cnc3ccccc3c2)n2nccc2N1` (stereo not drawn) gave an inhibition of 17%.
On the same count and under the same terms, as for `CC1=C(C(=O)N2CCN(c3ccc(F)cc3)CC2)C(c2cccc3c2OCO3)n2nccc2N1` (stereo not drawn), the figure is 18%.

These data come from ChEMBL document CHEMBL1152205, “Dihydropyrazolopyrimidine inhibitors of K(V)1.5 (I(Kur))” (Bioorg Med Chem Lett, 2008).
